Experimental data as given in the NIST ThermoML archive (doi:10.1021/je101012n).
Numbers after ± are expanded uncertainties.

Test: mn = molality of the nth substance listed, in mol/kg
Settings: 101 kPa, Liquid, Alternating current cell with electrodes

[F-].[Na+] [sodium fluoride] + O
electrical conductivity [S/m]
Settings	278.15 K	283.15 K	298.15 K	308.15 K	318.15 K	343.15 K	363.15 K
m1 = 8.8e-05	0.0005802 ± 2.3e-06	0.0006955 ± 2.8e-06	0.0009523 ± 3.8e-06	0.00122 ± 5e-06	0.001433 ± 6e-06	0.002014 ± 8e-06	0.00252 ± 1e-05
m1 = 0.00092	0.006016 ± 2.4e-05	0.006909 ± 2.8e-05	0.009683 ± 3.9e-05	0.01152 ± 5e-05	0.01398 ± 6e-05	0.02009 ± 8e-05	0.02474 ± 0.0001
m1 = 0.00878	0.05214 ± 0.00021	0.05994 ± 0.00024	0.08551 ± 0.00034	0.1038 ± 0.0004	0.1234 ± 0.0005	0.1798 ± 0.0007	0.227 ± 0.0009
m1 = 0.0906	0.4638 ± 0.0019	0.5338 ± 0.0021	0.7669 ± 0.0031	0.9341 ± 0.0037	1.112 ± 0.0044	1.621 ± 0.0065	2.042 ± 0.0082
m1 = 0.4176	1.917 ± 0.0077	2.201 ± 0.0088	3.151 ± 0.013	3.824 ± 0.015	4.547 ± 0.018	6.57 ± 0.026	8.137 ± 0.033
m1 = 0.8404	3.432 ± 0.014	3.915 ± 0.016	5.579 ± 0.022	6.791 ± 0.027	7.478 ± 0.03	11.37 ± 0.045	14.54 ± 0.058

O=[N+]([O-])[O-].O=[N+]([O-])[O-].[Zn+2] [nitric acid, zinc salt] + O
electrical conductivity [S/m]
Settings	278.15 K	283.15 K	298.15 K	308.15 K	318.15 K	343.15 K	363.15 K
m1 = 8.7e-05	0.001368 ± 5e-06	0.001579 ± 6e-06	0.002248 ± 9e-06	0.002744 ± 1.1e-05	0.003188 ± 1.3e-05	0.004549 ± 1.8e-05	0.00575 ± 2.3e-05
m1 = 0.00127	0.01814 ± 7e-05	0.02081 ± 8e-05	0.02942 ± 0.00012	0.03606 ± 0.00014	0.04205 ± 0.00017	0.06014 ± 0.00024	0.07615 ± 0.0003
m1 = 0.00874	0.1162 ± 0.0005	0.1334 ± 0.0005	0.1891 ± 0.0008	0.2299 ± 0.0009	0.2687 ± 0.0011	0.383 ± 0.0015	0.4824 ± 0.0019
m1 = 0.1275	1.391 ± 0.0056	1.592 ± 0.0064	2.217 ± 0.0089	2.658 ± 0.011	3.118 ± 0.013	4.402 ± 0.018	5.442 ± 0.022
m1 = 0.3325	3.111 ± 0.012	3.653 ± 0.015	4.931 ± 0.02	5.906 ± 0.024	6.986 ± 0.028	9.937 ± 0.04	11.83 ± 0.047

O=[N+]([O-])[O-].O=[N+]([O-])[O-].[Mn+2] [manganese nitrate] + O
electrical conductivity [S/m]
Settings	278.1 K	283.1 K	298.15 K	308.15 K	318.15 K	343.15 K	363.15 K
m1 = 0.000917	0.05151 ± 0.00021	0.05774 ± 0.00023	0.07688 ± 0.00031	0.08959 ± 0.00036	0.1015 ± 0.0004	0.1307 ± 0.0005	0.155 ± 0.0006
m1 = 0.01047	0.1786 ± 0.0007	0.2033 ± 0.0008	0.282 ± 0.0011	0.3382 ± 0.0014	0.3934 ± 0.0016	0.538 ± 0.0022	0.6651 ± 0.0027
m1 = 0.086	1.04 ± 0.0042	1.179 ± 0.0047	1.63 ± 0.0065	1.958 ± 0.0078	2.295 ± 0.0092	3.125 ± 0.013	3.692 ± 0.015
m1 = 0.8521	7.064 ± 0.028	7.973 ± 0.032	10.69 ± 0.043	12.54 ± 0.05	14.41 ± 0.058	19.41 ± 0.078	–

O=S(=O)([O-])[O-].[Cs+].[Cs+] [cesium sulfate] + O
electrical conductivity [S/m]
Settings	278.15 K	283.15 K	298.15 K	308.15 K	318.15 K	343.15 K	363.15 K
m1 = 0.000101	0.001962 ± 8e-06	0.002237 ± 9e-06	0.003069 ± 1.2e-05	0.003625 ± 1.5e-05	0.004233 ± 1.7e-05	0.006348 ± 2.5e-05	0.0078 ± 3e-05
m1 = 0.00105	0.01932 ± 8e-05	0.02195 ± 9e-05	0.0306 ± 0.0001	0.03666 ± 0.00015	0.04304 ± 0.00017	0.06181 ± 0.00025	0.07641 ± 0.00031
m1 = 0.01021	0.1676 ± 0.0007	0.1906 ± 0.0008	0.2654 ± 0.0011	0.3173 ± 0.0013	0.3716 ± 0.0015	0.5216 ± 0.0021	0.6438 ± 0.0026
m1 = 0.1047	1.358 ± 0.0054	1.539 ± 0.0062	2.124 ± 0.0085	2.529 ± 0.01	2.958 ± 0.012	4.094 ± 0.016	5.022 ± 0.02
m1 = 0.1836	2.24 ± 0.009	2.528 ± 0.01	3.468 ± 0.014	4.119 ± 0.017	4.792 ± 0.019	6.59 ± 0.026	8 ± 0.032
m1 = 0.3588	4.083 ± 0.016	4.58 ± 0.018	6.204 ± 0.025	7.32 ± 0.029	8.463 ± 0.034	11.58 ± 0.046	13.73 ± 0.055
